The results in this text go back to patent US8067582B2 (Bristol-Myers Squibb Company, priority 2007, dated 2011).

pIC50: −log10 of the molar value. Bounds are passed on as bounds.

As a reminder, the pIC50 is −log10 of the IC50, conventionally taken in molar units.

The first assay addresses T1, androgen receptor (AR) (Homo sapiens, UniProt P10275).
T1 sequence (P10275 1-920): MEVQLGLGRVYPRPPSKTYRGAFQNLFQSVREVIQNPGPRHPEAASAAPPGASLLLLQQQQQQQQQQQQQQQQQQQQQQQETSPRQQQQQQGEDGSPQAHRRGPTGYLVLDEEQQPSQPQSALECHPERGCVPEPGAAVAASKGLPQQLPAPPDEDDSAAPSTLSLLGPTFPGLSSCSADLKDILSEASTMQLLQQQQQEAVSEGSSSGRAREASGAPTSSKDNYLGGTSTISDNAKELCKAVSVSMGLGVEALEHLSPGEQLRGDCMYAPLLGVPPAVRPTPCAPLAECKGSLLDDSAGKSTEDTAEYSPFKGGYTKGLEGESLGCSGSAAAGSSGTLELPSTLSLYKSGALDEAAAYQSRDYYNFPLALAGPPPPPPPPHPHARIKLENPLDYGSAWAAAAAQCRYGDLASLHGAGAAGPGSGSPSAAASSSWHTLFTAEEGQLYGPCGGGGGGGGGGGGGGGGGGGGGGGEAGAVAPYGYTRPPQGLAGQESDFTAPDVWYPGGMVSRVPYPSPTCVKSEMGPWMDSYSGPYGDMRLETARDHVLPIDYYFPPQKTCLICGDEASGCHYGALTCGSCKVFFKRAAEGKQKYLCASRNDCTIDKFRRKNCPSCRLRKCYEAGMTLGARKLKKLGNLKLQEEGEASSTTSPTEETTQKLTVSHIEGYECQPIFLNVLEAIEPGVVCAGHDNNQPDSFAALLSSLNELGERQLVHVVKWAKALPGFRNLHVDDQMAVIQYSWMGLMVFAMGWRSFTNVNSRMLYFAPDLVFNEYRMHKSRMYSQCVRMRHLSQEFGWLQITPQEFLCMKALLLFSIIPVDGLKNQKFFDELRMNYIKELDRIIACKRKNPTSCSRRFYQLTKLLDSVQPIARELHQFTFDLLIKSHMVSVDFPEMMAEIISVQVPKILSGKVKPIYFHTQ
Kind of assay: MDA-MB-453 Androgen Receptor Transactivation Assay (PSA-Luc reporter, 3 nM DHT). As to conditions: MDA-MB-453 cells, antagonism in presence of 3 nM DHT, 48 hour incubation. It counts as cell-based. From the text:
Compounds can be tested in a cell based transactivation assay used to measure the antagonism of androgen receptor (AR) transcriptional activity. The transactivation assay provides a means of identifying antagonists that inhibit the effects of the native hormone dihydrotestosterone (DHT). […] The pGL3 PSA-Luc reporter plasmid is comprised of the cDNA for the firefly luciferase gene and the upstream promoter sequences containing the androgen response elements (AREs) of the prostate specific antigen (PSA). This plasmid functions as a reporter for the transcription-modulating activity of the AR. In order to detect antagonists, the transactivation assay is conducted in the presence of constant concentration of the natural AR hormone (DHT) to induce a defined reporter signal. Addition of increasing concentrations of the suspected antagonist will decrease the reporter signal (luciferase activity).
MDA-MB-453 and 22 RV1 cells were maintained in DMEM (Cellgro, Cat. #10-014-CM) or RPMI 1640 (Gibco Cat. #11875-085) respectively and supplemented with 10% FBS (Invitrogen/GIBCO Life Science). Cells were bulk transfected in flasks with 1.3 ug/ml pGL3 PSA-Luc plasmid by using the Lipofectamine 2000 Reagent (Invitrogen, Cat. #11668-019) and serum-free Opti-MEM I media (Invitrogen, Cat #31985-070) according to the manufacturer's optimized conditions. Transfection was conducted at 37° C. with 5% CO2 for 16-18 hours. Following transfection, cells are washed, treated with trypsin, counted, and seeded in a 96-well plate at 30,000 cells per well in DMEM containing 10% Charcoal/Dextran Treated Fetal Bovine Serum (Gibco Cat. #11054-020) for MDA-MB-453 cells or RPMI 1640 (Gibco Cat. #110835) containing 10% FBS (Invitrogen/GIBCO Life Science) for 22 RV1 cells.
Following transfection, cells were incubated in the absence (blank) or presence (control) of 3 nM DHT (Sigma, Cat. #A-8380) and in the presence or absence of the standard antiandrogen bicalutamide or test compounds ranging in concentrations from 10^−10 to 10^−5M. Duplicates were used for each sample. The compound dilutions were performed by the Tecan Genesis (Tecan, Triangle Park, N.C.). After a 48 hour incubation, luciferase activity was measured using the Steady-Glo Luciferase Assay System (Promega, Cat. #E2550) according to manufacturer's specifications and luminescence was measured on a Packard TopCount (PerkinElmer). For each luciferase sample reading, the percent control (in absence of compounds) was calculated as: % Control=100×[averagesample−averageblank]/[averagecontrol−averageblank] Data was plotted and the IC50 value was defined as the concentration of compound that inhibited 50% of the luciferase activity for the controls.
Compounds described herein were tested in the AR transactivation assay described immediately above, using MDA-MB-453 cells.
`N#Cc1ccc(N2C(=O)[C@@H]3[C@@H]4[C@H]2OCC[C@]42O[C@H]3C[C@H]2O)cc1C(F)(F)F` (single isomer, unassigned) [Example 55]: the pIC50 is 4.97.

`C[C@@]12O[C@]3(CCO[C@@H]4[C@H]3[C@H]1C(=O)N4c1ccc(C#N)c(C(F)(F)F)c1)C[C@H]2N=[N+]=[N-]` [Example 12, 4-((1S,3R,4R,5R,8R,12S)-3-azido-4-methyl-6-oxo-9,13-dioxa-7-azatetracyclo[6.3.1.1^1,4.0^5,12]tridec-7-yl)-2-(trifluoromethyl)benzonitrile]: the pIC50 was less than 5.12.

Turning to `CCNC(=O)[C@]12C(=O)N(c3ccc(C#N)c(C(F)(F)F)c3)[C@@H]3OCC[C@@]4(C[C@H](O)[C@]1(C)O4)[C@@H]32` (single isomer, unassigned) [Example 22], the pIC50 is less than 5.12.

As for `N#Cc1ccc(N2C(=O)[C@H]3[C@H]4O[C@]5(CCO[C@@H]2[C@@H]35)C[C@@H]4O)cc1C(F)(F)F` (single isomer, unassigned) [Example 57], the pIC50 is no more than 5.12.

Consider `C[C@@]12O[C@]3(CCO[C@@H]4[C@H]3[C@H]1C(=O)N4c1ccc(C#N)c(C(F)(F)F)c1)C[C@@H]2O` (single isomer, unassigned) [Example 2], for which the pIC50 is 4.96.

Consider `CC[C@@]12O[C@]3(CCO[C@@H]4[C@H]3[C@H]1C(=O)N4c1ccc(C#N)c(C(F)(F)F)c1)C[C@@H]2O` (single isomer, unassigned) [Example 61], for which the pIC50 was no more than 5.12.

As for `CC(=O)N[C@@H]1[C@@H](O)[C@]23CCO[C@@H]4[C@H]2[C@@H](C(=O)N4c2ccc(C#N)c(C(F)(F)F)c2)[C@@]1(C)O3` (stereo in doubt) [Example 254, N-((1S,2R,3R,4R,5R,8R,12S)-7-(4-cyano-3-(trifluoromethyl)phenyl)-2-hydroxy-4-methyl-6-oxo-9,13-dioxa-7-azatetracyclo[6.3.1.1^1,4.0^5,12]tridec-3-yl)acetamide], the pIC50 was 5.31.

With `C[C@@]12C[C@@](C)(O)[C@]3(CCO[C@H]4[C@@H]3[C@@H]1C(=O)N4c1ccc(C#N)c(C(F)(F)F)c1)O2` [Example 37, 4-((1R,2R,4R,5S,8S,12R)-2-hydroxy-2,4-dimethyl-6-oxo-9,13-dioxa-7-azatetracyclo[6.3.1.1^1,4.0^5,12]tridec-7-yl)-2-(trifluoromethyl)benzonitrile], the pIC50 is 5.94.

With `N#Cc1ccc(N2C(=O)[C@@H]3[C@@H]4[C@H]2OCC[C@@]42CC[C@@H]3O2)cc1C(F)(F)F` (single isomer, unassigned) [Example 53], the pIC50 is 5.92.

Turning to `C[C@@]12C[C@H](O)[C@]3(CO[C@H]4[C@@H]3[C@@H]1C(=O)N4c1ccc(C#N)c(C(F)(F)F)c1)O2` [Example 38, 4-((1S,4S,7S,8R,10S,11R)-10-Hydroxy-8-methyl-6-oxo-3,12-dioxa-5-azatetracyclo[5.3.1.1^1,8.0^4,11]dodec-5-yl)-2-(trifluoromethyl)benzonitrile], the pIC50 was 5.96.

For the compound `CCS(=O)(=O)N[C@H]1C[C@@]2(C)O[C@@]13CCO[C@H]1[C@@H]3[C@@H]2C(=O)N1c1ccc(C#N)c(C(F)(F)F)c1F` [Example 190, N-((1R,2S,4R,5S,8S,12R)-7-(4-Cyano-2-fluoro-3-(trifluoromethyl)phenyl)-4-methyl-6-oxo-9,13-dioxa-7-azatetracyclo[6.3.1.1^1,4.0^5,12]tridec-2-yl)ethanesulfonamide], the pIC50 was 5.64.

For `C[C@]12CC[C@@]3(CCO[C@@H]4[C@H]3[C@H]1C(=O)N4c1ccc(C#N)c(C(F)(F)F)c1)O2` [Example 51, 4-((1S,4S,5R,8R,12S)-4-methyl-6-oxo-9,13-dioxa-7-azatetracyclo[6.3.1.1^1,4.0^5,12]tridec-7-yl)-2-(trifluoromethyl)benzonitrile], the pIC50 was 5.74.

Regarding `C[C@]12O[C@@]3(CCO[C@@]4(C)[C@@H]3[C@@H]1C(=O)N4c1ccc(C#N)c(C(F)(F)F)c1)C[C@H]2O` (single isomer, unassigned) [Example 25], the pIC50 is less than 5.12.

Regarding `C[C@@]12C[C@H](O)[C@]3(CCO[C@H]4[C@@H]3[C@]1(CO)C(=O)N4c1ccc(C#N)c(C(F)(F)F)c1)O2` [Example 24, 4-((1R,2S,4R,5R,8S,12R)-2-hydroxy-5-(hydroxymethyl)-4-methyl-6-oxo-9,13-dioxa-7-azatetracyclo[6.3.1.1^1,4.0^5,12]tridec-7-yl)-2-(trifluoromethyl)benzonitrile], the negative logarithm of the IC50 (pIC50) was 5.26.

On to `C[C@@]12C[C@H](NC(=O)OCCO)[C@]3(CCO[C@H]4[C@@H]3[C@@H]1C(=O)N4c1ccc(C#N)c(C(F)(F)F)c1)O2` [Example 162, 2-Hydroxyethyl ((1R,2S,4R,5S,8S,12R)-7-(4-cyano-3-(trifluoromethyl)phenyl)-4-methyl-6-oxo-9,13-dioxa-7-azatetracyclo[6.3.1.1^1,4.0^5,12]tridec-2-yl)carbamate], for which the pIC50 was 5.71.

Regarding `CCS(=O)(=O)N[C@H]1C[C@@]23CCO[C@H]4[C@@H]2[C@H](C(=O)N4c2ccc(C#N)c(C(F)(F)F)c2)[C@]1(C)O3` [Example 222, N-((1R,3S,4S,5S,8S,12R)-7-(4-cyano-3-(trifluoromethyl)phenyl)-4-methyl-6-oxo-9,13-dioxa-7-azatetracyclo[6.3.1.1^1,4.0^5,12]tridec-3-yl)ethanesulfonamide], the negative-log IC50 (pIC50) is 7.24.

Staying with this assay, now noted: MDA-MB-453 cells, antagonism in presence of 3 nM DHT, 48 hour incubation, read-out: IC50.
With `C[C@]12O[C@@]3(CCO[C@H]4[C@@H]3[C@@H]1C(=O)N4c1cc(Cl)cc(Cl)c1)C[C@H]2O` [Example 149, (1S,3R,4S,5S,8S,12R)-7-(3,5-dichlorophenyl)-3-hydroxy-4-methyl-9,13-dioxa-7-azatetracyclo[6.3.1.1^1,4.0^5,12]tridecan-6-one], the negative logarithm of the IC50 (pIC50) was 5.96.

As to `C[C@@]12C[C@H](O)[C@]3(CCO[C@H]4[C@@H]3[C@@H]1C(=O)N4c1cc(Cl)cc(Cl)c1)O2` [Example 117, (1R,2S,4R,5S,8S,12R)-7-(3,5-dichlorophenyl)-2-hydroxy-4-methyl-9,13-dioxa-7-azatetracyclo[6.3.1.1^1,4.0^5,12]tridecan-6-one], the pIC50 is 5.61.

Take `C[C@]12O[C@@]3(CCO[C@H]4[C@@H]3[C@@H]1C(=O)N4c1ccc(Cl)c(F)c1)C[C@H]2O` [Example 138, (1S,3R,4S,5S,8S,12R)-7-(4-chloro-3-fluorophenyl)-3-hydroxy-4-methyl-9,13-dioxa-7-azatetracyclo[6.3.1.1^1,4.0^5,12]tridecan-6-one]: the negative logarithm of the IC50 (pIC50) was 5.22.

For the compound `C[C@@]12C[C@H](O)[C@]3(CCO[C@H]4[C@@H]3[C@@H]1C(=O)N4c1ccc(F)c(Cl)c1)O2` [Example 15, (1R,2S,4R,5S,8S,12R)-7-(3-chloro-4-fluorophenyl)-2-hydroxy-4-methyl-9,13-dioxa-7-azatetracyclo[6.3.1.1^1,4.0^5,12]tridecan-6-one], the pIC50 was 4.98.
